Source: US9822130B2, “Triazolo-pyrazinyl derivatives useful as soluble guanylate cyclase activators” (Merck Sharp & Dohme Corp., priority 2014, dated 2017)

Biological target: T1, sGC α1/β1 heterodimer stably expressed in CHO-K1 cell line (CHO-K1/sGC) (Homo sapiens, UniProt Q02108+Q02153)
T1 construct: expressed in transfected cells
T1 sequence (Q02108 1-690): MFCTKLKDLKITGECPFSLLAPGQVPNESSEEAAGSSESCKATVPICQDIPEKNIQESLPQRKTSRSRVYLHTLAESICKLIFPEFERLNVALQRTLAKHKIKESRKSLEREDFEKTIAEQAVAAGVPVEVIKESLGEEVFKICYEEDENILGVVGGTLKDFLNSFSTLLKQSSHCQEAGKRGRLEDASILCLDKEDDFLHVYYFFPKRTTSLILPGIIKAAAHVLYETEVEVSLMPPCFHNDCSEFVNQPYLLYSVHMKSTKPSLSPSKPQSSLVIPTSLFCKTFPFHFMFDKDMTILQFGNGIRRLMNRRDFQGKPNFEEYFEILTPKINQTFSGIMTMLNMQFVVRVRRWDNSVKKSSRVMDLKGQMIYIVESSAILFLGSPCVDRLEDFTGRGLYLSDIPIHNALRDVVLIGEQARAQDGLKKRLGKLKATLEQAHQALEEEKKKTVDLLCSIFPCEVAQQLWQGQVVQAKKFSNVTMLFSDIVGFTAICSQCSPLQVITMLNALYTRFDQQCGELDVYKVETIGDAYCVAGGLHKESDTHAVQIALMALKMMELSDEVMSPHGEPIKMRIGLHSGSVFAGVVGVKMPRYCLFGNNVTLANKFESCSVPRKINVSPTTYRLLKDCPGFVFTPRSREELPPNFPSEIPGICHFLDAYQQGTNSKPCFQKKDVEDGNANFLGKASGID
T1 sequence (Q02153 1-619): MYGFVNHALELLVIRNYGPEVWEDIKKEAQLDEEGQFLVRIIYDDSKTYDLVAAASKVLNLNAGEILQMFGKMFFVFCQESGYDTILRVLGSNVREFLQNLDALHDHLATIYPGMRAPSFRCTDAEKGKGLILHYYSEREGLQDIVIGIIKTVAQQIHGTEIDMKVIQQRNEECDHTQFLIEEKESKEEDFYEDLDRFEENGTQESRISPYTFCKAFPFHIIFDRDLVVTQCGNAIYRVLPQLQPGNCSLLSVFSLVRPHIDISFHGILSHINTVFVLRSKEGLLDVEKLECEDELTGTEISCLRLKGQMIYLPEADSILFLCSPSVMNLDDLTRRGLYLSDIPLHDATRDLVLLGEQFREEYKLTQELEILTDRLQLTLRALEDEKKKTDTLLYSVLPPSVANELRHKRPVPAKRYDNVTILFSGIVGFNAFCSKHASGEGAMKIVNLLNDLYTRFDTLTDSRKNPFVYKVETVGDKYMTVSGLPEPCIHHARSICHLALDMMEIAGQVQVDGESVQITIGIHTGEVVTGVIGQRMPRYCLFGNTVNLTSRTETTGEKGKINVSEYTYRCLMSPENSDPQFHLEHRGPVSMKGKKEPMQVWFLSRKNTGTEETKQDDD
Test: Cell-based sGC Functional Assay (CASA Assay), cGMP generation
Conditions: CHO-K1/sGC cells, 1 hr at 37° C., cGMP by HTRF, presence or absence of 1 μM DETA-NO not given; for EC50: 4P fit, read-out: IP (nM) (inflection point)
Method in brief: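 CHO-K1 cells stably expressing human sGC α1/β1 (4×10^5/mL, 0.5 mM IBMX) were treated with compounds (2.5% DMSO final) ± 1 μM DETA-NO for 1 hr at 37° C. Intracellular cGMP measured by HTRF. Activity expressed as % of Compound A maximal cGMP; IP and maximum fold induction from 4P fit.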

Structure (SMILES): Nc1nc(-c2cn3ncnc3c(CCC(F)(F)C(F)(F)F)n2)nc2c1C(c1cn(C3CC3)nn1)(C1CC1)C(=O)N2 (centres unmarked) [Example 96B, 4-amino-5-cyclopropyl-5-(1-cyclopropyl-1H-1,2,3-triazol-4-yl)-2-(8-(3,3,4,4,4-pentafluorobutyl)-[1,2,4]triazolo[1,5-a]pyrazin-6-yl)-5H-pyrrolo[2,3-d]pyrimidin-6(7H)-one]
- EC50: 134 nM

Structure (SMILES): CC1(c2nnc(C3CC3)o2)C(=O)Nc2nc(-c3cn4ncnc4c(CCC(F)(F)C(F)(F)F)n3)nc(N)c21 (centres unmarked) [Example 98B, 4-amino-5-(5-cyclopropyl-1,3,4-oxadiazol-2-yl)-5-methyl-2-(8-(3,3,4,4,4-pentafluorobutyl)-[1,2,4]triazolo[1,5-a]pyrazin-6-yl)-5H-pyrrolo[2,3-d]pyrimidin-6(7H)-one]
- EC50: 86.1 nM

Structure (SMILES): CC1(c2nnc(C3CC3)o2)C(=O)Nc2nc(-c3cn4ncnc4c(CCCC(F)(F)F)n3)nc(N)c21 (centres unmarked) [Example 99A, 4-amino-5-(5-cyclopropyl-1,3,4-oxadiazol-2-yl)-5-methyl-2-(8-(4,4,4-trifluorobutyl)-[1,2,4]triazolo[1,5-a]pyrazin-6-yl)-5H-pyrrolo[2,3-d]pyrimidin-6(7H)-one]
- EC50: 47.5 nM

Structure (SMILES): CC1(c2nnc(C(F)F)o2)C(=O)Nc2nc(-c3cn4ncnc4c(CCCC(F)(F)F)n3)nc(N)c21 (centres unmarked) [Example 100A, 4-amino-5-(5-(difluoromethyl)-1,3,4-oxadiazol-2-yl)-5-methyl-2-(8-(4,4,4-trifluorobutyl)-[1,2,4]triazolo[1,5-a]pyrazin-6-yl)-5H-pyrrolo[2,3-d]pyrimidin-6(7H)-one]
- EC50: 127 nM

Structure (SMILES): CC1(c2nnc(C(F)(F)F)o2)C(=O)Nc2nc(-c3cn4ncnc4c(CCCC(F)(F)F)n3)nc(N)c21 (centres unmarked) [Example 101A, 4-amino-5-methyl-2-(8-(4,4,4-trifluorobutyl)-[1,2,4]triazolo[1,5-a]pyrazin-6-yl)-5-(5-(trifluoromethyl)-1,3,4-oxadiazol-2-yl)-5H-pyrrolo[2,3-d]pyrimidin-6(7H)-one]
- EC50: 121 nM

Structure (SMILES): CCCCc1nc(-c2nc(N)c3c(n2)NC(=O)C3(C)c2nnc(C(F)(F)F)o2)cn2ncnc12 (centres unmarked) [Example 102A, 4-amino-2-(8-butyl-[1,2,4]triazolo[1,5-a]pyrazin-6-yl)-5-methyl-5-(5-(trifluoromethyl)-1,3,4-oxadiazol-2-yl)-5H-pyrrolo[2,3-d]pyrimidin-6(7H)-one]
- EC50: 29.1 nM

Structure (SMILES): Cc1nc2c(CCC(F)(F)C(F)(F)F)nc(-c3nc(N)c4c(n3)NC(=O)C4(C)c3nnc(C4CC4)o3)cn2n1 (centres unmarked) [Example 103A, 4-amino-5-(5-cyclopropyl-1,3,4-oxadiazol-2-yl)-5-methyl-2-(2-methyl-8-(3,3,4,4,4-pentafluorobutyl)-[1,2,4]triazolo[1,5-a]pyrazin-6-yl)-5H-pyrrolo[2,3-d]pyrimidin-6(7H)-one]
- EC50: 219 nM

Structure (SMILES): Nc1nc(-c2cn3ncnc3c(CCCC(F)(F)F)n2)nc2c1C(c1nnc(C3CC3)o1)(C1CC1)C(=O)N2 (centres unmarked) [Example 104A, 4-amino-5-cyclopropyl-5-(5-cyclopropyl-1,3,4-oxadiazol-2-yl)-2-(8-(4,4,4-trifluorobutyl)-[1,2,4]triazolo[1,5-a]pyrazin-6-yl)-5H-pyrrolo[2,3-d] pyrimidin-6(7H)-one]
- EC50: 258 nM

Structure (SMILES): CCCCc1nc(-c2nc(N)c3c(n2)NC(=O)C3(c2nnc(C(F)(F)F)o2)C2CC2)cn2ncnc12 (centres unmarked) [Example 105A, 4-amino-2-(8-butyl-[1,2,4]triazolo[1,5-a]pyrazin-6-yl)-5-cyclopropyl-5-(5-(trifluoromethyl)-1,3,4-oxadiazol-2-yl)-5H-pyrrolo[2,3-d]pyrimidin-6(7H)-one]
- EC50: 26.7 nM

Structure (SMILES): Nc1nc(-c2cn3ncnc3c(CCCC(F)(F)F)n2)nc2c1C(c1nnc(C(F)(F)F)o1)(C1CC1)C(=O)N2 (centres unmarked) [Example 106A, 4-amino-5-cyclopropyl-2-(8-(4,4,4-trifluorobutyl)-[1,2,4]triazolo[1,5-a]pyrazin-6-yl)-5-(5-(trifluoromethyl)-1,3,4-oxadiazol-2-yl)-5H-pyrrolo[2,3-d]pyrimidin-6(7H)-one]
- EC50: 15.5 nM

Structure (SMILES): Nc1nc(-c2cn3ncnc3c(CCC(F)(F)C(F)(F)F)n2)nc2c1C(c1nnc(C3CC3)o1)(C1CC1)C(=O)N2 (centres unmarked) [Example 107A, 4-amino-5-cyclopropyl-5-(5-cyclopropyl-1,3,4-oxadiazol-2-yl)-2-(8-(3,3,4,4,4-pentafluorobutyl)-[1,2,4]triazolo[1,5-a]pyrazin-6-yl)-5H-pyrrolo[2,3-d]pyrimidin-6(7H)-one]
- EC50: 74.7 nM

Structure (SMILES): Nc1nc(-c2cn3ncnc3c(CCCC(F)(F)F)n2)nc2c1C(c1nnc(C3(F)CC3)o1)(C1CC1)C(=O)N2 (centres unmarked) [Example 108A, 4-amino-5-cyclopropyl-5-(5-(1-fluorocyclopropyl)-1,3,4-oxadiazol-2-yl)-2-(8-(4,4,4-trifluorobutyl)-[1,2,4]triazolo[1,5-a]pyrazin-6-yl)-5H-pyrrolo[2,3-d] pyrimidin-6(7H)-one]
- EC50: 14.7 nM

Structure (SMILES): CC1(c2nnc(C3(F)CC3)o2)C(=O)Nc2nc(-c3cn4ncnc4c(CCCC(F)(F)F)n3)nc(N)c21 (centres unmarked) [Example 109A, 4-amino-5-(5-(1-fluorocyclopropyl)-1,3,4-oxadiazol-2-yl)-5-methyl-2-(8-(4,4,4-trifluorobutyl)-[1,2,4]triazolo[1,5a]pyrazin-6-yl)-5H-pyrrolo[2,3-d] pyrimidin-6(7H)-one]
- EC50: 7.3 nM

Structure (SMILES): CC1(c2ccc(O)cn2)C(=O)Nc2nc(-c3cn4ncnc4c(CCC(F)(F)C(F)(F)F)n3)nc(N)c21 (centres unmarked) [Example 110A, 4-Amino-5-(5-hydroxypyridin-2-yl)-5-methyl-2-(8-(3,3,4,4,4-pentafluorobutyl)-[1,2,4]triazolo [1,5-a]pyrazin-6-yl)-5,7-dihydro-6H-pyrrolo [2,3-d]pyrimidin-6-one]
- EC50: 139 nM
- Emax (read-out: % Act. (percent activation relative to maximum cGMP production of Compound A = 100%)): 70%

Structure (SMILES): CC1(c2ccc(O)cn2)C(=O)Nc2nc(-c3cn4ncnc4c(CCCC(F)(F)F)n3)nc(N)c21 (centres unmarked) [Example 111A, 4-amino-5-(5-hydroxypyridin-2-yl)-5-methyl-2-(8-(4,4,4-trifluorobutyl)-[1,2,4]triazolo[1,5-a]pyrazin-6-yl)-5H-pyrrolo[2,3-d]pyrimidin-6(7H)-one]
- EC50: 370 nM

Structure (SMILES): Nc1nc(-c2cn3ncnc3c(CCCC(F)(F)F)n2)nc2c1C(c1ccc(O)cn1)(C1CC1)C(=O)N2 (centres unmarked) [Example 112A, 4-amino-5-cyclopropyl-5-(5-hydroxypyridin-2-yl)-2-(8-(4,4,4-trifluorobutyl)-[1,2,4]triazolo[1,5-a]pyrazin-6-yl)-5H-pyrrolo[2,3-d]pyrimidin-6(7H)-one]
- EC50: 212 nM

Structure (SMILES): C[C@@]1(c2ccc(F)cc2)C(=O)Nc2nc(-c3cn4ncnc4c(Cc4cccc(O)c4)n3)nc(N)c21 [Example 113B, (S)-4-amino-5-(4-fluorophenyl)-2-(8-(3-hydroxybenzyl)-[1,2,4]triazolo[1,5-a]pyrazin-6-yl)-5-methyl-5H-pyrrolo[2,3-d]pyrimidin-6(7H)-one]
- EC50: 763 nM

Structure (SMILES): Nc1nc(-c2cn3ncnc3c(CCC(F)(F)C(F)(F)F)n2)nc2c1C(c1ccccn1)(C1CC1)C(=O)N2 (centres unmarked) [Example 114A, 4-amino-5-cyclopropyl-2-(8-(3,3,4,4,4-pentafluorobutyl)-[1,2,4]triazolo[1,5-a]pyrazin-6-yl)-5-(pyridin-2-yl)-5,7-dihydro-6H-pyrrolo[2,3-d]pyrimidin-6-one]
- EC50: 144 nM

Structure (SMILES): Nc1nc(-c2cn3ncnc3c(CCCC(F)(F)F)n2)nc2c1C(c1ccccn1)(C1CC1)C(=O)N2 (centres unmarked) [Example 115A, 4-amino-5-cyclopropyl-5-(pyridin-2-yl)-2-(8-(4,4,4-trifluorobutyl)-[1,2,4]triazolo[1,5-a]pyrazin-6-yl)-5H-pyrrolo[2,3-d]pyrimidin-6(7H)-one]
- EC50: 233 nM
